This is an account of results in US10995068B2, “Synthetic sphingolipid-like molecules, drugs, methods of their synthesis and methods of treatment” (The Regents of the University of California, priority 2015, dated 2021).

One test deals with bound NADH fraction. Description: NADH fluorescence lifetime imaging (FLIM). The format is cell-based. The settings on record: mimicked amino acid and glucose starvation. The text has this: Cells adapt to nutrient limitation by increasing oxidative phosphorylation. The relative rate of glycolysis and oxidative phosphorylation can be monitored by measuring the fluorescence lifetime of the reduced form of nicotinamide adenine dinucleotide (NADH). A higher ratio of protein-bound to free NADH (increased lifetime) correlates with increased oxidative phosphorylation in multiple cell types both in vitro and in vivo. Oligomycin and rotenone/antimycin A are molecules known in the field to induce glycolysis, whereas 2-deoxy-glucose (2DG) is an inhibitor of glycolysis and subsequently increases oxidative phosphorylation. Starvation of cells by removing access to glucose and amino acids is also known to increase oxidative phosphorylation. […]
NADH Fluorescence Lifetime Imaging Microscopy (FLIM). […] The excitation wavelength was 740 nm and a dichroic filter (690 nm) was used to separate the fluorescence signal from the laser light. […] The fluorescence was detected by a hybrid detector (HPM-100 Hamamatsu). […] The FLIM system was calibrated during each imaging session by measuring the fluorescence decay of fluorescein with a single exponential of 4.04 nsec. […] Data was processed by the SimFCS software developed at the Laboratory of Fluorescence Dynamics at UCI. […]

Test [1] has as its system K-RasG12D expressing cells. Nature of the test: Macropinosome fusion with lysosomes. The format is cell-based. Particulars: dextran. The text has this: In cells with activated Ras, macropinocytosis might also confer resistance to nutrient transporter down-regulation. However, PI(3,5)P2 is also required for macropinosome degradation. […] Macropinosomes that fail to fuse with lysosomes would not be able to supply nutrients, such as amino acids. Thus, by disrupting PIKfyve localization, sphingolipid-like compounds limit access to lysosome-derived nutrients at the same time it down-regulates transporters for amino acids and glucose.
Light Microscopy: Brightfield and epifluorescence microscopy were conducted using a Nikon TE2000-S fluorescence microscope; confocal microscopy was performed on a Zeiss LSM780 confocal microscope or Nikon Eclipse Ti spinning disk confocal microscope. […] Co-localization was determined using JACoP plugin in ImageJ software. Macropinocytosis was measured after 16 h incubation in serum-free DMEM. p53−/−; LSL-K-RasG12D MEFs before (LSL) or after (KRasG12D) introduction of Cre were serum starved for 16 h and then treated with macropinocytosis inhibitor 5-(N-ethyl-N-isopropyl) amiloride (EIPA, 75 μM) for 1 h or SH-BC-893 for 6 h. Oregon Green dextran (Life Technologies, cat #D7173) (1 mg/mL) and Lysotracker Red (Life Technologies, cat #L-7525) (1:2,000 dilution) were added for 30 min and live cells were evaluated on the spinning disc confocal microscope. […]

A further test deals with CD98 (4F2hc, SLC3A2). Nature of the test: Surface CD98 nutrient transporter down-regulation by flow cytometry. It counts as cell-based, murine. The settings on record: FL5.12 cells, surface CD98 at 3 h, flow cytometry, mean ± SEM, n ≥3. The text has this: In an exemplified study, nutrient transporter down-regulation was monitored by quantifying surface levels of the amino acid transporter-associated protein, CD98, by flow cytometry. Vacuolation was scored in a range from 0 to […], as determined by a vacuolation assay described in greater detail in the Materials and Methods section below.
Cell culture studies: FL5.12 cells (murine hematopoetic cells originally obtained from Craig Thompson, Memorial Sloan Kettering Cancer Center) were maintained at 0.1-0.5 million/ml in RPMI 1640 (Mediatech) supplemented with 10% fetal calf serum (FCS, Sigma-Aldrich), 10 mM Hepes (Mediatech), 500 pg/ml recombinant IL-3 (cat #575502, Biolegend), 55 μM β-mercaptoethanol (Sigma-Aldrich), 2 mM L-glutamine (Mediatech), and antibiotics. Cells were screened for Mycoplasma every 3 months using the Look-Out Mycoplasma PCR Detection kit (cat #MP0035, Sigma).
Nutrient transporter expression: Surface CD98 (4F2hc, SLC3A2) expression was measured at 3 h using phycoerythrin (PE)-conjugated rat anti-mouse CD98 antibody (Biolegend, cat #128208); analysis was restricted to viable cells. PE conjugated Rat IgG2a, k (cat #400508, Biolegend) was used as an isotype control. For staining, 200,000 cells were pelleted, re-suspended in 100 μl FACS block (PBS with 10% FCS and 0.05% NaN3) containing 0.25 μL anti-CD98 antibody, incubated on ice for 30 min, washed twice with 1 ml FACS wash (PBS containing 2% FCS and 0.05% NaN3), and analyzed on a BD LSR II flow cytometer. Data was processed with FlowJo software (Treestar).
For orientation: Flow cytometry measures light scatter and fluorescence of single cells or particles in a stream.

Several values for one entry are separate records, joined by “and”; a condition that tells them apart may be missing. Identical values can stand only once.

Take `CCCCCCCCc1ccc([C@H]2CCN[C@@H]2CO)cc1.Cl` [Compound 5, (2S,3R)-2-(hydroxymethyl)-3-(4-octylphenyl)Pyrrolidinium chloride]: in the test on bound NADH fraction, the “bound NADH fraction” value is “increasing”. For the same molecule, in test [1], the “macropinosome fusion with lysosomes” value is reported as “dramatically reduced macropinosome fusion with lysosomes”. Further, the “% CD98 down-regulation” value in the test on CD98 (4F2hc, SLC3A2) (listed as 104) is 54% and 54 ± 1%.
In the case of `CCCCCCCCc1ccc(CCC(N)(CO)CO)cc1.Cl` [FTY720, 2-Amino-2-[2-(4-octylphenyl)ethyl]propane 1,3-diol hydrochloride, reference compound], the “% CD98 down-regulation” value in the test on CD98 (4F2hc, SLC3A2) was found to be 68 ± 3%.
